Patent US11186617B2, “Epitope” (HOYU CO., LTD., priority 2017, dated 2021)
“Also recorded” adds a separate entry of the source.

Key:
[1] = test system: IgE antibody in the serum from a WDEIA patient; assay: Epitope mapping (1): peptide array, chemiluminescent measurement of IgE binding using human serum; details: 15-amino-acid peptides on array; 2% serum; sera from WDEIA patients 1 to 3 vs healthy individuals 1 and 2; FIG. 1
Procedure: Epitope mapping was performed by using a library of overlapping peptides (15 amino acids in length) corresponding to the full-length amino acid sequence of ω-5 gliadin from bread wheat (SEQ ID NO: 51).
Each synthesized peptide was shifted by 10 amino acids. In other words, each peptide overlaps with the previous peptide and the next peptide, each by 5 amino acids.
Intavis CelluSpots™ technique was used for preparing a peptide array. Specifically, the peptide array was prepared by the following procedures: (1) synthesizing a target peptide on an amino-modified cellulose disk by using an automated synthesizer (MultiPep RS from Intavis), (2) dissolving said amino-modified cellulose disk to obtain a solution of a peptide bound to cellulose, and (3) spotting said peptide bound to cellulose on a coated slide glass. The detail of each procedure is as follows.
Said peptide array was used to measure whether each peptide fragment is bound by an IgE antibody in the serum from a WDEIA patient due to an antigen-antibody reaction, or not. This measurement was performed in accordance with the following procedures. […]
(7) Chemiluminescence of the peptide that was treated as described in the above (1) to (6) was measured by using Amersham Imager 600.

[2] = test system: IgE antibody from the healthy subject; assay: Epitope mapping (3): alanine scanning ELISA, healthy subject serum; type: binding, human; details: alanine-substituted peptides; sera from healthy individuals 1 and 2; FIG. 3
Procedure: (§1) The amino acid sequence of SEQ ID NO: 22 and the amino acid sequence of SEQ ID NO: 29 identified in the above-mentioned (B) were subjected to a technique referred to as alanine scanning (Non Patent Literature 1). Specifically, a library of peptide fragments was prepared by a technique similar to that described above in (B), in which the peptide fragments were produced by substituting one amino acid at a time with alanine in each amino acid sequence of […], starting from the amino acid at an amino terminal side. Then, a technique similar to that described above in (B) was used to measure whether each peptide fragment was bound by the IgE antibody in the serum from a patient and a healthy subject, or not. When alanine substitution of an amino acid at a certain position led to loss or reduction of binding activity to the IgE antibody from the patient and development of binding activity to the IgE antibody from the healthy subject, the amino acid was determined to be an amino acid important for expression of inherent antigenicity or an amino acid affecting expression of inherent antigenicity. […] A common sequence important for expression of inherent antigenicity was discovered by this analysis.
(§2) The result of alanine scanning performed on the amino acid sequence of SEQ ID NO: 22 and the result of alanine scanning performed on the amino acid sequence of SEQ ID NO: 29 are shown in FIG. 3, respectively.

[3] = test system: IgE antibody from the patient; assay: Epitope mapping (3): alanine scanning ELISA, patient serum; type: binding, human; details: alanine-substituted peptides; serum from patient 1; FIG. 3
Procedure: as §1, §2

[4] = test system: anti-human IgE antibody as a secondary antibody; assay: Epitope mapping (3): alanine scanning ELISA, secondary antibody used alone; type: binding; details: alanine-substituted peptides, FIG. 3
Text: FIG. 3 is a diagram showing the result of investigation of positions important for exerting antigenicity in SEQ ID NOs: 22 and 29 by an alanine scanning technique. The number on the horizontal axis denotes a value of coloration intensity at 450 nm measured by an absorption spectrometer (Abs.). In this figure, a double wavy line denotes that a value is not shown, P1 denotes that the serum from patient 1 was used, N1 and N2 denote that the sera from healthy individuals 1 and 2 were used, and 2nd denotes that an anti-human IgE antibody as a secondary antibody was used alone.
as §1, §2

Substance | binding of IgE antibody to peptide spot (chemiluminescence) [1] | binding activity to the IgE antibody from the healthy subject (absorbance at 450 nm) [2] | binding activity to the IgE antibody from the patient (absorbance at 450 nm) [3] | binding activity to the anti-human IgE antibody as the secondary antibody (absorbance at 450 nm) [4]
SEQ ID NO: 13: peptide of amino acids 161 to 175 of the full-length ω-5 gliadin from bread wheat (SEQ ID NO: 51) (PQQQPPQQHQFPQQQ; epitope) | bound, in a manner specific to a patient | – | – | –
SEQ ID NO: 6: peptide of amino acids 221 to 235 of the full-length ω-5 gliadin from bread wheat (SEQ ID NO: 51) (QQFPQQEFPQQQQFP; epitope) | bound, in a manner specific to a patient | – | – | –
SEQ ID NO: 7: amino acid at position 3 in SEQ ID NO: 22 substituted with alanine (QQFPQQEAPQQQQFP; epitope) | – | developed little binding activity | retained binding activity; also recorded: substantially increased binding activity | developed little binding activity
